Laboratory results from patent publication US20220313626A1, “SMALL MOLECULE INHIBITORS FOR TREATING CANCER IN A SUBJECT HAVING TUMORS WITH HIGH INTERSTITIAL PRESSURE” (GUANGZHOU MAXINOVEL PHARMACEUTICALS CO., LTD., priority 2019, published 2022).

Experiments:
[1] = test system: PD-L1 suppressed human T-cells; test: Activation of T-Cell Suppressed by PD-L1 (IFN-g readout); format: cell-based; details: human T cells co-cultured with Hep3B cells transfected with human PD-L1; dose dependent; Keytruda positive control
From the text: To measure the cellular activity of the compound, a protocol of Activation of T-Cell Suppressed by PD-L1 was used. In this protocol, human Hep3B cells were stably transfected with human PD-L1. The human T cells containing PD-1 were inactivated by co-culturing with these PD-L1 transfected cells. Then anti-PD-1 antibody Keytruda® was selected as the reference to profile the compound for its activation of PD-L1 suppressed human T-cells.

[2] = test system: B16F10 tumor cells; test: Anti-tumor efficacy in the B16F10 models; format: in vivo; details: for TGI / Tumor Volume: BID, 20 days
Description: Materials required for the experiment: Antibody: mouse PD-1 antibody, Product specifications: 7.09 mg/mL (50 mg/mL), Lot No.: 695318A1 purchased from BioXcell, storage at 4 °C. Experimental animals: 60 C57BL/6 mice, female, 6˜8 weeks old, 17˜21 g, purchased from Shanghai Lingchang Biotechnology Co. Ltd. Formulation materials: castor oil (Cremophor RH40) , CAS No.: 61788-85-0, Lot No.: 29761847G0, purchased from Shanghai Xietai Chemical Co. Ltd.; β-cyclodextrin (SBE-β-CD), CAS No.: 128446-35-5, Lot No.: 20180110, purchased from Shanghai Shaoyuan Chemical Co. Ltd.; DMEM culture medium, Art. No.: 11995-065, Lot No.:2025378, purchased from Gibco Co. Ltd.; PBS, Art. No.: SH30256.01, Lot No.: AB10141338, purchased from HyClone Co. Ltd.; Fetal bovine serum: Art. No.: 04-002-1A, Lot No.: 1625436, purchased from Boehringer Ingelheim Co. Ltd.; Methyl cellulose (MC), Art. No.: M7027-250G, Lot No.: 079K0054V, purchased from Sigma.
Cell preparation and implantation: The B16-F10 tumor cells (ATCC CRL6475™) were maintained in vitro as a monolayer culture in DMEM medium supplemented with 10% heat inactivated fetal bovine serum at 37° C. in an atmosphere of 5% CO2 in air. The tumor cells were routinely subcultured three times weekly by trypsin-EDTA treatment. The cells growing to a confluency around 70%-80% were harvested and counted for tumor inoculation.
Tumor cell inoculation and group administration: The 100 uL cell suspension containing 1×10^6 B16F10 tumor cells (cells suspended in base DMEM medium) was inoculated into the right subcutaneous of mice. On the second day after inoculation, according to the order of tumor inoculation, stratified randomization was used to group and start the administration on the day of grouping.
Preparation of test substances: Preparation of formulation: 700 mL of sterile water was added into the volumetric flask with magnetic stirring to have a vortex. 100 g of castor oil (Cremophor RH40) was added with a spoon slowly into the vortex and the solution was kept stirring. 200 g of β-cyclodextrin (SBE-β-CD) was added while the solution was kept stirring until the solution was clear, and the total volume was set to 1000 mL, which contained 10% (w/v) Cremophor RH40+20% (w/v) an aqueous solution of SBE-β-CD.
Preparation of compound suspension: 169.16 mg compound was weighed, 14.012 mL 10% (w/v) Cremophor RH40+20% (w/v) SBE-β-CD aqueous solution were added, and the suspension solution with a concentration of 12.0 mg/mL was obtained by fully mixing with magnetic stirring. 6.0 mL of the compound suspension solution with concentration of 12.0 mg/mL was pipetted and 6.0 mL aqueous formulation solution was added. The suspension solution with a concentration of 6.0 mg/mL was obtained by fully mixing with magnetic stirring. 6.0 mL of the compound suspension solution with concentration of 6.0 mg/mL was pipetted and 6.0 mL aqueous formulation solution was added. The suspension solution with a concentration of 3.0 mg/mL was obtained by fully mixing with magnetic stirring. The compound suspension solution was prepared once a day.
Preparation of mPD-1 antibody: 0.564 mL mPD-L1 antibody (7.09 mg/mL) original solution was pipetted and […] PBS solution was added. The solution was fully mixed and the final concentration of 1 mg/mL solution was obtained.
Procedure: The mice in the vehicle group were weighed and recorded in the electronic balance according to their numbers. The mice in the vehicle group were given prepared formulation solution twice a day by oral administration according to their body weight with a capacity of 0.1 mL/10 g. Each mouse spent about 20 seconds and 10 mice in each group shared for about 5 minutes.
The mice in the antibody (10 mg/kg) group were weighed and recorded in the electronic balance according to their numbers. The mice in the antibody group were given prepared antibody solution twice a week by IP administration according to their body weight with a capacity of 0.1 ml/10 g. […]

[3] = B16F10, C57BL/6 mice, 30 mg/kg, PO
[4] = B16F10, C57BL/6 mice, 60 mg/kg, PO
[5] = B16F10, C57BL/6 mice, 120 mg/kg, PO

Cc1c(/C=C/c2cc(CN[C@@](C)(CO)C(=O)O)ccc2C(F)(F)F)cccc1-c1ccccc1 [Compound]
activation of PD-L1 suppressed human T cell, indicated by increase of cytokine IFN-g [1]: effectively restored the activation | growth of subcutaneous transplanted melanoma cell line in mice ([2]; B16F10, C57BL/6 mice): significantly inhibit the growth | TGI [2, 3]: 35.59% | Tumor Volume [2, 3]: 795.99 ± 112.92 mm^3 | TGI [2, 4]: 38.87% | Tumor Volume [2, 4]: 755.48 ± 155.85 mm^3 | TGI [2, 5]: 47.35% | Tumor Volume [2, 5]: 650.67 ± 157.53 mm^3 | tolerability (adverse reactions) ([2]; C57BL/6 mice, PO, BID up to 120 mg/kg): well tolerated
